One compound from ChEMBL document CHEMBL4715805, “Structure-Activity Relationship for Sulfonamide Inhibition of Helicobacter pylori α-Carbonic Anhydrase” (J Med Chem, 2016) can be followed below.

A short description of the experiment: Inhibition of Helicobacter pylori alpha-carbonic anhydrase expressed in Escherichia coli assessed as inhibition constant preincubated for 15 mins prior to testing by phenol red-based stopped-flow CO2 hydration assay.

As a reminder, the Ki is the dissociation constant of the complex between target and ligand, obtained from inhibition or displacement. Take `Cn1nc(S(N)(=O)=O)s/c1=N/S(=O)(=O)c1ccc(C(C)(C)C)cc1`: the Ki stood at 8.2 nM.
